Measurements: paper PMC6274077, “In Vitro Study on Anti-Hepatitis C Virus Activity of Spatholobus suberectus Dunn” (Molecules, 2016)
Read-outs that look alike come from different tables or passages of the source.

Legend:
[1] = Cytotoxicity by methylene blue assay; assay type: cell-based; details: human, Huh-luc/neo-ET cells
Experimental: The cytotoxicity of different herbal extract or components was measured by methylene blue assay. Huh-luc/neo-ET cells were seeded at a density of 7 × 10^3 cells per well in 96-well plate and treated with serial dilution of different herb extracts for 72 h. Cells were fixed and stained with 0.5% methylene blue in 50% ethanol, and then washed with tap water. After air-dry, cells were solubilized with 1% Sarkosyl and cell viability was determined from the extent absorption by spectrophotometric measurements at 595 nm (Spectra Max M5, Molecular Devices).

[2] = tested on: HCV JFH1-GFP chimeric virus; design: method as in PMID 22491814; details: read-out: EC50, replication of HCV JFH1-GFP chimeric virus; cited from earlier work
[3] = tested on: J399EM virus; design: method as in PMID 22491814; details: cited from earlier work
[4] = tested on: HCV entry; design: method as in PMID 22491814; details: cited from earlier work
[5] = tested on: HCV genotype 1b (Con1) replicon; test: Anti-HCV luciferase reporter assay on Huh-luc/neo-ET replicon cells; details: Hepatitis C virus, GETYPE1B, 72 h
[6] = tested on: different subtypes of human and avian influenza viruses; details: cited from earlier work
[7] = read-out: Anti-HCV Activity (EC50, 72 h)
[8] = read-out: Anti-HCV Activity (EC50)
[9] = read-out: Anti-HCV Activity (EC50), in brackets as mass concentration

Row | Structure (SMILES) | IC50 at 72 h [1] [µM] | EC50 [5, 7] [µM] | EC50 [5, 8] [µM] | EC50 [5, 9] [ng/mL] | other results
1 | O=C(O[C@@H]1Cc2c(O)cc(O)cc2O[C@@H]1c1cc(O)c(O)c(O)c1)c1cc(O)c(O)c(O)c1 [EGCG, epigallocatechin gallate] | > 100 | 68.7 ± 4.51 | – | – | EC50 [2]: 17.9 µM; EC50 [3]: 80 µM; EC50 [4]: 25 µM
2 | O=C(O[C@@H]1Cc2c(O)cc(O)cc2O[C@@H]1c1ccc(O)c(O)c1)c1cc(O)c(O)c(O)c1 [ECG, epicatechin gallate] | > 100 | 69.8 ± 5.62 | – | – | –
3 | CC(C)OC(=O)[C@H](C)N[P@](=O)(OC[C@H]1O[C@@H](n2ccc(=O)[nH]c2=O)[C@](C)(F)[C@@H]1O)Oc1ccccc1 [Sofosbuvir, sofosbuvir] | – | – | 0.0263 ± 0.0055 | 13.9 | –
4 | O=C(O)c1cc(O)c(O)c(O)c1 [Gallic acid, gallic acid] | > 100 | > 100 | – | – | –
5 | Oc1cc(O)c2c(c1)O[C@H](c1cc(O)c(O)c(O)c1)[C@H](O)C2 [EGC, epigallocatechin] | > 100 | > 100 | – | – | –
6 | COc1ccc2c(O[C@@H]3C[C@H]4C(=O)N[C@]5(C(=O)NS(=O)(=O)C6CC6)C[C@H]5/C=C\CCCCN(C)C(=O)[C@@H]4C3)cc(-c3nc(C(C)C)cs3)nc2c1C [Simeprevir, simeprevir] | – | – | 0.00127 ± 0.00025 | 42.5 | –
7 | COc1cc(C[C@H]2CO[C@H](c3ccc(O[C@@H]4O[C@H](CO)[C@@H](O)[C@H](O)[C@H]4O)c(OC)c3)[C@H]2CO)ccc1O[C@@H]1O[C@H](CO)[C@@H](O)[C@H](O)[C@H]1O [Clemastanin B] | – | – | – | – | inhibitory concentrations against influenza viruses [6]: below 1 mg/mL
8 | Oc1cc(O)c2c(c1)O[C@H](c1ccc(O)c(O)c1)[C@@H](O)C2 [(+)-Catechin] | > 100 | > 100 | – | – | –
9 | CCC[C@H](NC(=O)[C@@H]1[C@H]2CCC[C@H]2CN1C(=O)[C@@H](NC(=O)[C@@H](NC(=O)c1cnccn1)C1CCCCC1)C(C)(C)C)C(=O)C(=O)NC1CC1 [Telaprevir, telaprevir] | – | – | 0.185 ± 0.035 | 126 | –
10 | Oc1cc(O)c2c(c1)O[C@H](c1ccc(O)c(O)c1)[C@H](O)C2 [EC, epicatechin] | > 100 | > 100 | – | – | –
11 | COC(=O)N[C@H](C(=O)N1CCC[C@H]1c1nc(-c2ccc(-c3ccc(-c4c[nH]c([C@@H]5CCCN5C(=O)[C@@H](NC(=O)OC)C(C)C)n4)cc3)cc2)c[nH]1)C(C)C [Daclatasvir, daclatasvir] | – | – | 8e-06 ± 1e-06 | 0.00591 | –
